Drawing on ChEMBL document CHEMBL5291721, “A preclinical secondary pharmacology resource illuminates target-adverse drug reaction associations of marketed drugs” (Nat Commun, 2023), this text covers AC50 for 22 compounds.

The structures appear in SMILES notation.

For assay [1], the target named is T1, Progesterone receptor (Homo sapiens, UniProt P06401).
T1 sequence (P06401 whole entry): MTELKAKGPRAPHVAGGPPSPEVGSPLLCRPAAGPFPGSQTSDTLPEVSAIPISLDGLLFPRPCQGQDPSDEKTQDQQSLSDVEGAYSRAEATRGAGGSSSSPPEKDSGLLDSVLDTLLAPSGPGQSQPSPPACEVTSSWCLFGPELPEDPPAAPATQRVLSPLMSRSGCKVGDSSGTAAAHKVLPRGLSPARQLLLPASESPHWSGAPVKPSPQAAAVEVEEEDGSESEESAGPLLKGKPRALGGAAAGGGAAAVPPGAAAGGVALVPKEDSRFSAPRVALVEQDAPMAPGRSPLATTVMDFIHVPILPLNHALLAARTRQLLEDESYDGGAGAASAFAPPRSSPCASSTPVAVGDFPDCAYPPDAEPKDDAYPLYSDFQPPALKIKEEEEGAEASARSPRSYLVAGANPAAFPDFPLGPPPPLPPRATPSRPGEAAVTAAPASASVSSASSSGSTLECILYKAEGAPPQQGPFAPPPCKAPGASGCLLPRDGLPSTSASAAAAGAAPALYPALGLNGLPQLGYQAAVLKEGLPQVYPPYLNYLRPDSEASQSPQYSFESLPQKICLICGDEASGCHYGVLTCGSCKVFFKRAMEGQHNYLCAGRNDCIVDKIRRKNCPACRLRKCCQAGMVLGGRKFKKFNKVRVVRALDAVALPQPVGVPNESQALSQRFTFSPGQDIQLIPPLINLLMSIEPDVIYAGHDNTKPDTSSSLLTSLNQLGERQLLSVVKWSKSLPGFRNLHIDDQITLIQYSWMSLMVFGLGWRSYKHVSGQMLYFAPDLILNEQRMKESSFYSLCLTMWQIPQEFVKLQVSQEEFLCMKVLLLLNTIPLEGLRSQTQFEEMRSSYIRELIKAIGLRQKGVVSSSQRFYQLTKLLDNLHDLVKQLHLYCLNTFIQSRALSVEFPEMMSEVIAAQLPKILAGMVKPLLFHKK
Format: functional.

Assay [2] addresses Vasopressin V2 receptor (Homo sapiens, UniProt P30518).
For assay [3], the target named is T2, Glucocorticoid receptor (Homo sapiens, UniProt P04150).
T2 sequence (P04150 whole entry): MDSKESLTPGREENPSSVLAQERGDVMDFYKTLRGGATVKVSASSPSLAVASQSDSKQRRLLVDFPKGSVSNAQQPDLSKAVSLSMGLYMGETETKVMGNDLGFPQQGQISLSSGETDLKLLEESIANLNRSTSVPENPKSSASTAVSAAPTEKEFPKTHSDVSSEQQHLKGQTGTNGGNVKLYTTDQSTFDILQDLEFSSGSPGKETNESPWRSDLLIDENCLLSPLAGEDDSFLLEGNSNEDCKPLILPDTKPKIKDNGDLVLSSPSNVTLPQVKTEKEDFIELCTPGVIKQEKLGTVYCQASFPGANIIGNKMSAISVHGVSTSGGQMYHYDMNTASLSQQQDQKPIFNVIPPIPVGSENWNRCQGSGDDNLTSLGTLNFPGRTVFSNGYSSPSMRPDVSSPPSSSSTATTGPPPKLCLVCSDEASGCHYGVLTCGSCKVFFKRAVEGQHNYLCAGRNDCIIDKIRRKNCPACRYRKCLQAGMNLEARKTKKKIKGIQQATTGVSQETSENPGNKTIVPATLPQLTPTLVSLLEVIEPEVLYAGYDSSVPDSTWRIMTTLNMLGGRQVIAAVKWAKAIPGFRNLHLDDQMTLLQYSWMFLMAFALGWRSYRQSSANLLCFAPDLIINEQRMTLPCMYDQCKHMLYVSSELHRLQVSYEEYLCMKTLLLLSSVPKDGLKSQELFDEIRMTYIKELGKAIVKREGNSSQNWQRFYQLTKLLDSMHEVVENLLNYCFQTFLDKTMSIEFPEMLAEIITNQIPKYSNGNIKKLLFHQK

Assay [4] addresses T3, Muscarinic acetylcholine receptor M2 (Homo sapiens, UniProt P08172).
T3 sequence (P08172 whole entry): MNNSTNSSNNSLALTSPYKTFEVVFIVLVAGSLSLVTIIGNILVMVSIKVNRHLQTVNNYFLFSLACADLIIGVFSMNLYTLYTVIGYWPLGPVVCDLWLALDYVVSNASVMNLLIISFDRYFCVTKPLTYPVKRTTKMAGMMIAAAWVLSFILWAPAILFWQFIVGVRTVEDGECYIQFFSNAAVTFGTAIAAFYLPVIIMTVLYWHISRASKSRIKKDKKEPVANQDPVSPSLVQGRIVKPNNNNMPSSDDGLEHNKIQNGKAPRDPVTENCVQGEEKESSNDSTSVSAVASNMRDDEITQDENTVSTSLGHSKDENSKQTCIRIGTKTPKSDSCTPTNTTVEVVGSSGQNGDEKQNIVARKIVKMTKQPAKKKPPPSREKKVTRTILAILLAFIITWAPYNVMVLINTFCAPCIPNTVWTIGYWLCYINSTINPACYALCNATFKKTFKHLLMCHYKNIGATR
It is filed as functional, cell-based.

The target in assay [5] is Kappa-type opioid receptor (Homo sapiens, UniProt P41145).
The target of assay [6] is 5-hydroxytryptamine receptor 2A (Homo sapiens, UniProt P28223). Format: functional, cell-based.
Assay [7] addresses Sodium-dependent dopamine transporter (Homo sapiens, UniProt Q01959).
Assay [8] addresses T4, 5-hydroxytryptamine receptor 1A (Homo sapiens, UniProt P08908).
T4 sequence (P08908 whole entry): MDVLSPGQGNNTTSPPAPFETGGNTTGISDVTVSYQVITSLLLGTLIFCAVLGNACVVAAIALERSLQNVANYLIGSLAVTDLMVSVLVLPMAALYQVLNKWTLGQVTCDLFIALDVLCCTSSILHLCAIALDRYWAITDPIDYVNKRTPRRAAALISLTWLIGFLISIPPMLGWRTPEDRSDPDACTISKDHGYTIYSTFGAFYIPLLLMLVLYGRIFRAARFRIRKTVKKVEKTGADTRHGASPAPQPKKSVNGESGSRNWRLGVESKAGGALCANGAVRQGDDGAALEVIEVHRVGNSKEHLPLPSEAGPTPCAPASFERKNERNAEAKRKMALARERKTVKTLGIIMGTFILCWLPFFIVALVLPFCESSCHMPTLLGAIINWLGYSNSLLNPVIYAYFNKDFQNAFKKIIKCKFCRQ

Assay [9] deals with T1, Progesterone receptor.
The target in assay [10] is Prothrombin (Homo sapiens, UniProt P00734). Format: functional.
Note: assay procedure not described here.

Sodium-dependent dopamine transporter, sequence (Q01959 whole entry): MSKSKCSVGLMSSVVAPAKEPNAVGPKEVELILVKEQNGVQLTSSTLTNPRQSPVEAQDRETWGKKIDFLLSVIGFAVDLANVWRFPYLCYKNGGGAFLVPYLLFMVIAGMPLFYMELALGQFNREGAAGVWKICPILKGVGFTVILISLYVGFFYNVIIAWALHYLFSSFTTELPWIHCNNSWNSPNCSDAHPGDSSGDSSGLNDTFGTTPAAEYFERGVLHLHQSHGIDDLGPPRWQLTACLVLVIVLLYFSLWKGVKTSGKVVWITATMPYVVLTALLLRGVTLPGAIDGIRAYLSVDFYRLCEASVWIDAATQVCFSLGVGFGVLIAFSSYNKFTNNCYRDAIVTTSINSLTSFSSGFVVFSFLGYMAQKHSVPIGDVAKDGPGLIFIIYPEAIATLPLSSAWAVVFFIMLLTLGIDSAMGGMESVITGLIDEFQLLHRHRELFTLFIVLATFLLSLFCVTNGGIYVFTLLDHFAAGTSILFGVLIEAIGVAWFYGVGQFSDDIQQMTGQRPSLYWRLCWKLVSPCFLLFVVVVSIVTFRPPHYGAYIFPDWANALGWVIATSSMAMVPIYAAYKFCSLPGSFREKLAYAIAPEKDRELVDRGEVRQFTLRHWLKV
5-hydroxytryptamine receptor 2A, sequence (P28223 whole entry): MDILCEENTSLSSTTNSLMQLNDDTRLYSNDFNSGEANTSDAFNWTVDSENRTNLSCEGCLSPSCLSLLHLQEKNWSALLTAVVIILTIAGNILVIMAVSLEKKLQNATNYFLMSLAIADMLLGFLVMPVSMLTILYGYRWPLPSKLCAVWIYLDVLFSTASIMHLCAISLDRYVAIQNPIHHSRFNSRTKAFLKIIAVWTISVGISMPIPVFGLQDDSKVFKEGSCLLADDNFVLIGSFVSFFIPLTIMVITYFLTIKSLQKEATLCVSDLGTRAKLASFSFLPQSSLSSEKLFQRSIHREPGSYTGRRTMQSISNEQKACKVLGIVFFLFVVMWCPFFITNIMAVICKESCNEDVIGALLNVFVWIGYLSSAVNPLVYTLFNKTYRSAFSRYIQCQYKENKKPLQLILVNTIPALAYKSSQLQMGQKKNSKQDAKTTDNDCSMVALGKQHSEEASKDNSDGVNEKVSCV
Vasopressin V2 receptor, sequence (P30518 whole entry): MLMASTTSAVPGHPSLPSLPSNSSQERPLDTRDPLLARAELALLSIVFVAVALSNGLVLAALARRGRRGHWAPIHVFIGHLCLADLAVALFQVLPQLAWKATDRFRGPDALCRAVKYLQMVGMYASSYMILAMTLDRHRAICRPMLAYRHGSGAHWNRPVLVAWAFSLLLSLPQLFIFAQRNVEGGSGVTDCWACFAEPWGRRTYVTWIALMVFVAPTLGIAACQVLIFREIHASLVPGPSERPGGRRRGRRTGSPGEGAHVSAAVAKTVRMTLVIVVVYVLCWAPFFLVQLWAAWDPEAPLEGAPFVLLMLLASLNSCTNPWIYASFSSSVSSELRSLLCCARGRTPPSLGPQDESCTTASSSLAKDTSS
Kappa-type opioid receptor, sequence (P41145 whole entry): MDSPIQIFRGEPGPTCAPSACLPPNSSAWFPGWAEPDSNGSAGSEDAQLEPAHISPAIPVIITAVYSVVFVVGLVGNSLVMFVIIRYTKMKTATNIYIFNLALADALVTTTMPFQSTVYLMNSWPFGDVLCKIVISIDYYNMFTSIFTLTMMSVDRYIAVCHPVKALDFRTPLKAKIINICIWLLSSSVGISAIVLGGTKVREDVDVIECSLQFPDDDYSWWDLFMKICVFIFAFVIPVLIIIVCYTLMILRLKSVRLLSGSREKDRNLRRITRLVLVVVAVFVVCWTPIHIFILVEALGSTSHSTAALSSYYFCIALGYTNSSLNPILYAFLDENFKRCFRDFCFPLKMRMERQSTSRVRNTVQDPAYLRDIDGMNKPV

By AC50 is commonly meant the concentration giving half of the maximal activity seen. High values mean weaker potency, low ones greater potency. With `COC(=O)CCc1ccc(OCC(O)CNC(C)C)cc1` (centres undefined) [ESMOLOL], the concentration at half-maximal activity (AC50) in assay [1], in assay [2], in assay [3], in assay [4] and in assay [5] was more than 30 µM throughout.
`CC(C)(CO)c1cc2cc(NC(=O)C3(c4ccc5c(c4)OC(F)(F)O5)CC3)c(F)cc2n1C[C@@H](O)CO` [TEZACAFTOR]: the half-maximal activity concentration (AC50) in assay [1] is more than 30 µM; in assay [4], more than 30 µM; in assay [6], 16 µM.
Turning to `CCOCC(O)COc1ccc(NC(=O)CC[S+](C)C)cc1` (centres undefined), the AC50 in assay [1], in assay [4] and in [6] was more than 30 µM throughout.
Turning to `CO[C@@H]1[C@@H](OC(N)=O)[C@@H](O)[C@H](Oc2ccc3c(O)c(NC(=O)c4ccc(O)c(CC=C(C)C)c4)c(=O)oc3c2C)OC1(C)C` [NOVOBIOCIN], the AC50 in assay [1], in assay [4] and in assay [6] was more than 30 µM each time.
As for `COc1cc2c(cc1OC)C1CC(=O)C(CC(C)C)CN1CC2` (centres undefined) [TETRABENAZINE], the AC50 in [1], in assay [4] and in assay [6] was more than 30 µM throughout.
In the case of `C[C@@H](O)[C@H]1C(=O)N2C(C(=O)O)=C(SCCN=CN)C[C@H]12` [IMIPENEM ANHYDROUS], the AC50 in [1], in assay [4] and in assay [6] was more than 300 µM throughout.
In the case of `CN1CC2c3ccccc3Oc3ccc(Cl)cc3C2C1` (centres undefined) [ASENAPINE], the AC50 in assay [1] was more than 30 µM; in assay [4], 19 µM; in assay [6] it was 0.0002 µM.
Consider `O=c1[nH]cc(F)c(=O)[nH]1` [FLUOROURACIL], for which the AC50 in [1], in assay [2], in [7], in [8], in assay [3] and in [9] was more than 30 µM throughout. The concentration at half-maximal activity (AC50) in [10] is more than 30 µM.
Consider `c1cnc2cc3c(cc2n1)[C@@H]1CNC[C@H]3C1` [VARENICLINE], for which the AC50 in [1], in [4] and in assay [6] was more than 30 µM each time.
`Cn1cnc2c(F)c(Nc3ccc(Br)cc3F)c(C(=O)NOCCO)cc21` [BINIMETINIB]: the AC50 in assay [1], in [4] and in assay [6] was more than 30 µM throughout.
As for `C[C@H](Nc1ncnc2[nH]cnc12)c1cc2cccc(Cl)c2c(=O)n1-c1ccccc1` [DUVELISIB], the AC50 is more than 30 µM in assay [1]; more than 30 µM in assay [7]; more than 30 µM in assay [8]; more than 30 µM in [4]; 18 µM in assay [6]; more than 30 µM in assay [9]. In assay [10], the AC50 is more than 30 µM.
In the case of `C#CCN(C)Cc1ccccc1` [PARGYLINE], the AC50 in [7], in assay [8], in [4], in assay [6], in [5] and in assay [9] was more than 30 µM throughout. For the same compound, in [10], the half-maximal activity concentration (AC50) is more than 30 µM.
Turning to `O=C(Cc1cccs1)N[C@@H]1C(=O)N2C(C(=O)[O-])=C(C[n+]3ccccc3)CS[C@H]12` [CEPHALORIDINE], the AC50 in [7], in assay [8], in assay [4], in assay [6], in [5] and in assay [9] was more than 30 µM throughout. Besides, in [10], the AC50 was more than 30 µM.
Regarding `CC(=O)NC[C@H]1CN(c2ccc(N3CCOCC3)c(F)c2)C(=O)O1` [LINEZOLID], the AC50 in assay [1], in [2], in assay [3] and in assay [5] was more than 30 µM each time.
`CC[N+](CC)(CCNC(=O)C(=O)NCC[N+](CC)(CC)Cc1ccccc1Cl)Cc1ccccc1Cl` [AMBENONIUM]: the half-maximal activity concentration (AC50) was more than 30 µM in [1]; more than 30 µM in assay [2]; more than 30 µM in [4]; more than 30 µM in assay [6]; 0.7 µM in assay [5].
Consider `CS(=O)(=O)Nc1ccc([N+](=O)[O-])cc1Oc1ccccc1` [NIMESULIDE], for which the AC50 in assay [1] was more than 30 µM; in assay [2], 26 µM; in assay [7], 26.6 µM; in assay [8], more than 30 µM; in assay [4], more than 30 µM; in assay [5], more than 30 µM. Moreover, the AC50 in assay [9] and in assay [10] was more than 30 µM each time.
Regarding `NCCCNCCSP(=O)(O)O` [AMIFOSTINE], the concentration at half-maximal activity (AC50) in [2], in assay [3], in assay [4] and in assay [5] was more than 30 µM throughout.
Take `CN(C)CCc1c[nH]c2ccc(CS(=O)(=O)N3CCCC3)cc12` [ALMOTRIPTAN]: the AC50 in assay [1], in [2], in [4], in assay [6] and in [5] was more than 30 µM in each case.
As to `Nc1c2c(nc3ccccc13)CCCC2O` (centres undefined) [VELNACRINE], the AC50 in assay [1], in assay [4] and in assay [6] was more than 30 µM in each case.
Consider `O=C(O)[C@H]1/C(=C/CO)O[C@@H]2CC(=O)N21` [CLAVULANIC ACID], for which the AC50 in [1], in [4] and in [6] was more than 30 µM throughout.
With `CCC[C@@]1(CCc2ccccc2)CC(O)=C([C@H](CC)c2cccc(NS(=O)(=O)c3ccc(C(F)(F)F)cn3)c2)C(=O)O1`, the results for the AC50 in [1], in [4] and in [6] were more than 30 µM, more than 30 µM and 11 µM, respectively.
In the case of `C[C@H](CCC(=O)O)[C@H]1CC[C@H]2[C@@H]3[C@H](O)C[C@@H]4C[C@H](O)CC[C@]4(C)[C@H]3CC[C@]12C` [CHENODIOL], the AC50 in [4] and in assay [6] was more than 30 µM in each case.
